pIC50: −log10 of the molar value. The source made the active and inactive calls. The rule behind the calls is not given here.
How the values were obtained:
Caenorhabditis elegans [1] = assay: Nematocidal activity against Caenorhabditis elegans assessed as mortality on day 3; format: functional; set-up: concentration or dose not given beside the values
Caenorhabditis elegans [2] = assay: Nematocidal activity against Caenorhabditis elegans assessed as inhibition of reproduction on day 3; format: functional
[3] = Toxicity against Globodera pallida
[4] = Toxicity against Globodera rostochiensis
[5] = Inhibition of Globodera pallida hatching; format: functional
[6] = Inhibition of Globodera rostochiensis hatching; format: functional
Plasmodium falciparum = assay: Antiplasmodial activity against Plasmodium falciparum; format: functional, organism-based

SMILES	Activity (Caenorhabditis elegans [1])	inhibition (INH) (Caenorhabditis elegans [2]) [%]	also measured
O=C(/C=C/c1ccccc1)c1cccs1	100%	0	–
O=C(/C=C/c1ccccc1)c1ccccc1 [CHALCONE]	100%	0	LC50 [3]: 33 mM; LC50 [4]: 33 mM; pIC50 [5]: 2.15; pIC50 [6]: 2.15
COc1ccc(C(=O)/C=C/c2ccccc2)c(OC)c1	100%	0	–
O=C(/C=C/c1cccnc1)c1ccc(F)cc1	100%	0	pIC50 (Plasmodium falciparum): 4.77
CCCCOc1ccc(C(=O)/C=C/c2ccccc2)cc1	Active	–	inhibition (Caenorhabditis elegans [2]): Active
CCOc1ccc(C(=O)/C=C/c2ccccc2)cc1	100%	0	–
O=C(/C=C/c1ccccc1)c1ccc(Cl)cc1Cl	100%	0	–
O=C(/C=C/c1ccccc1)c1ccc(F)cc1F	100%	0	–
O=C(/C=C/c1ccccc1)c1ccccc1Cl	Active	–	inhibition (Caenorhabditis elegans [2]): Active
O=C(/C=C/c1ccccc1)c1ccco1	Active	–	inhibition (Caenorhabditis elegans [2]): Active
O=C(/C=C/c1ccccc1)c1cccc(Cl)c1	100%	0	–

Reference: ChEMBL document CHEMBL1687935, “Ferrocenyl chalcones versus organic chalcones: a comparative study of their nematocidal activity” (Bioorg Med Chem, 2011)
